What was measured:
[1] = Inhibition of chymotrypsin-like activity of human 20S proteosome assessed as hydrolysis of fluorogenic Suc-Leu-Leu-Val-Tyr-AMC substrate
HL-60 = experiment: Cytotoxicity against human HL60 cells after 72 hrs by MTT assay; type: functional, cell-based; settings: HL-60, 72 h
[2] = Cytotoxicity against human BCG823 cells after 72 hrs by MTT assay; type: functional, cell-based; settings: BCG823, 72 h
PC-3 = experiment: Cytotoxicity against human PC3 cells after 72 hrs by MTT assay; type: functional, cell-based; settings: PC-3, 72 h
BXPC-3 = experiment: Cytotoxicity against human BxPC3 cells after 72 hrs by MTT assay; type: functional, cell-based; settings: BXPC-3, 72 h
SW480 = experiment: Cytotoxicity against human SW480 cells after 72 hrs by MTT assay; type: functional, cell-based; settings: SW480, 72 h
U-266 = experiment: Cytotoxicity against human U266 cells after 72 hrs by MTT assay; type: functional, cell-based; settings: U-266, 72 h
A549 = experiment: Cytotoxicity against human A549 cells after 72 hrs by MTT assay; type: functional, cell-based; settings: A549, 72 h
[3] = Toxicity against zebrafish embryo assessed as morphological changes at 10 umol after 24 hrs; parameters: species or system Danio rerio; settings: in vivo
NCI-H460 = experiment: Cytotoxicity against human H460 cells after 72 hrs by MTT assay; type: functional, cell-based; settings: NCI-H460, 72 h
HepG2 = experiment: cells; settings: Homo sapiens, HepG2, 72 h
Description: Cytotoxicity against human HepG2 cells after 72 hrs by MTT assay

SK-OV-3 = experiment: Cytotoxicity against human SKOV3 cells after 72 hrs by MTT assay; type: functional, cell-based; settings: SK-OV-3, 72 h
[4] = Toxicity against zebrafish embryo assessed as morphological changes at 1 umol after 24 hrs; parameters: species or system Danio rerio; settings: in vivo
[5] = Tmax in Sprague-Dawley rat at 1 mg/kg, iv; type: ADME, organism-based; parameters: dose 1 mg/kg, route intravenous; settings: in vivo
[6] = Mean residence time in Sprague-Dawley rat at 1 mg/kg, iv; type: ADME, organism-based; parameters: dose 1 mg/kg, route intravenous; settings: in vivo
[7] = Cmax in Sprague-Dawley rat at 1 mg/kg, iv; type: ADME, organism-based; parameters: dose 1 mg/kg, route intravenous; settings: in vivo
[8] = Systemic clearance in Sprague-Dawley rat at 1 mg/kg, iv; type: ADME, organism-based; parameters: dose 1 mg/kg, route intravenous; settings: in vivo
[9] = Terminal half life in Sprague-Dawley rat at 1 mg/kg, iv; type: ADME, organism-based; parameters: dose 1 mg/kg, route intravenous; settings: in vivo, read-out: beta t1/2 (converted)
Rattus norvegicus [10] = experiment: Toxicity in Sprague-Dawley rat assessed as toxic reactions at 1 mg/kg, ig; type: organism-based; parameters: dose 1 mg/kg, route intragastric; settings: in vivo, po
[11] = AUC (0 to t) in Sprague-Dawley rat at 1 mg/kg, iv; type: ADME, organism-based; parameters: dose 1 mg/kg, route intravenous; settings: plasma
[12] = Volume of distribution in Sprague-Dawley rat at 1 mg/kg, iv; type: ADME, organism-based; parameters: dose 1 mg/kg, route intravenous; settings: in vivo, read-out: Vz
Rattus norvegicus [13] = experiment: Toxicity in Sprague-Dawley rat assessed as side effects at 2 mg/kg, iv; type: organism-based; parameters: dose 2 mg/kg, route intravenous; settings: in vivo
Rattus norvegicus [14] = experiment: Toxicity in Sprague-Dawley rat assessed as toxic reactions at 1 mg/kg, iv; type: organism-based; parameters: dose 1 mg/kg, route intravenous; settings: in vivo
[15] = AUC (0 to t) in Sprague-Dawley rat at 1 mg/kg, ig; type: ADME, organism-based; parameters: dose 1 mg/kg, route intragastric; settings: plasma, po
[16] = Cmax in Sprague-Dawley rat at 1 mg/kg, ig; type: ADME, organism-based; parameters: dose 1 mg/kg, route intragastric; settings: in vivo, po
[17] = Toxicity against zebrafish embryo assessed as cell death in tail at 1 umol after 24 hrs; parameters: species or system Danio rerio
[18] = Tmax in Sprague-Dawley rat at 1 mg/kg, ig; type: ADME, organism-based; parameters: dose 1 mg/kg, route intragastric; settings: in vivo, po
[19] = Toxicity against zebrafish embryo assessed as embryo death at 10 umol after 24 hrs; parameters: species or system Danio rerio; settings: in vivo
[20] = Systemic clearance in Sprague-Dawley rat at 1 mg/kg, ig; type: ADME, organism-based; parameters: dose 1 mg/kg, route intragastric; settings: in vivo, po
Rattus norvegicus [21] = experiment: Toxicity in Sprague-Dawley rat assessed as mortality at 1 mg/kg, iv after 10 hrs; type: organism-based; parameters: dose 1 mg/kg, route intravenous; settings: in vivo
[22] = Oral bioavailability in Sprague-Dawley rat; type: ADME, organism-based; settings: in vivo
Rattus norvegicus [23] = experiment: Volume of distribution in Sprague-Dawley rat at 1 mg/kg, ig; type: ADME, organism-based; parameters: dose 1 mg/kg, route intragastric; settings: in vivo, po
[24] = Toxicity against zebrafish embryo assessed as cell death in embryo at 1 umol after 24 hrs; parameters: species or system Danio rerio
[25] = Terminal half life in Sprague-Dawley rat at 1 mg/kg, ig; type: ADME, organism-based; parameters: dose 1 mg/kg, route intragastric; settings: in vivo, po, read-out: beta t1/2 (converted)
Rattus norvegicus [26] = experiment: Toxicity in Sprague-Dawley rat assessed as mortality at 1 mg/kg, ig after 10 hrs; type: organism-based; parameters: dose 1 mg/kg, route intragastric; settings: in vivo, po
[27] = Mean residence time in Sprague-Dawley rat at 1 mg/kg, ig; type: ADME, organism-based; parameters: dose 1 mg/kg, route intragastric; settings: in vivo, po

## Cc1ccc(C[C@H](NC(=O)CC(NC(=O)c2cnccn2)c2ccccc2)B(O)O)cc1 (stereo not given in full)
[1]
  IC50: 497 nM

## CC(C)C[C@H](NC(=O)CC(NC(=O)c1cnccn1)c1ccccc1)B(O)O (stereo not given in full)
[1]
  IC50: 136 nM

## Cc1ccc(C(CC(=O)N[C@@H](CC(C)C)B(O)O)NC(=O)c2cnccn2)cc1 (stereo not given in full)
[1]
  IC50: 69.8 nM

## CC(C)C[C@H](NC(=O)CC(NC(=O)c1ccccc1)c1ccccc1)B(O)O (stereo not given in full)
[1]
  IC50: 40 nM

## COc1ccc([C@H](CC(=O)N[C@@H](CC(C)C)B(O)O)NC(=O)c2ccccc2)cc1
HL-60
  IC50: 700 nM
[2]
  IC50: 76.9 µM
PC-3
  IC50: 1110 nM
BXPC-3
  IC50: 2820 nM
SW480
  IC50: 1720 nM
U-266
  IC50: 1280 nM
[1]
  IC50: 350 nM
A549
  IC50: 3680 nM
[3]
  Activity: Non-toxic
NCI-H460
  IC50: 25.2 µM
HepG2
  IC50: 5.13 µM
SK-OV-3
  IC50: 14.5 µM
[4]
  Activity: Non-toxic

## CC(C)C[C@H](NC(=O)CC(NC(=O)c1cccnc1)c1ccc(Cl)cc1)B(O)O (stereo not given in full)
[1]
  IC50: 180 nM

## COc1ccc(C(CC(=O)N[C@@H](CC(C)C)B(O)O)NC(=O)c2cccc3c2CCCC3)cc1 (stereo not given in full)
[1]
  IC50: 161 nM

## COc1ccc(C(CC(=O)N[C@@H](CC(C)C)B(O)O)NC(=O)c2cnccn2)cc1 (stereo not given in full)
[1]
  IC50: 134 nM

## CC(C)C[C@H](NC(=O)CC(NC(=O)c1cnccn1)c1ccc(Cl)cc1)B(O)O (stereo not given in full)
[1]
  IC50: 121 nM

## O=C(CC(NC(=O)c1cnccn1)c1ccccc1)N[C@@H](Cc1ccccc1)B(O)O (stereo not given in full)
[1]
  IC50: 664 nM

## Cc1ccc(C(CC(=O)N[C@@H](CC(C)C)B(O)O)NC(=O)c2cccnc2)cc1 (stereo not given in full)
[1]
  IC50: 165 nM

## Cc1ccc(C(CC(=O)N[C@@H](CC(C)C)B(O)O)NC(=O)c2ccccc2)cc1 (stereo not given in full)
[1]
  IC50: 14 nM

## COc1ccc(C(CC(=O)N[C@@H](CC(C)C)B(O)O)NC(=O)c2ccccc2)cc1 (stereo not given in full)
HL-60
  IC50: 1020 nM
[2]
  IC50: 30.9 µM
PC-3
  IC50: 830 nM
BXPC-3
  IC50: 1500 nM
SW480
  IC50: 1080 nM
U-266
  IC50: 2650 nM
[1]
  IC50: 12.5 nM
A549
  IC50: 3450 nM
NCI-H460
  IC50: 36 µM
HepG2
  IC50: 5.59 µM
SK-OV-3
  IC50: 8.43 µM

## CC(C)C[C@H](NC(=O)CC(NC(=O)c1cccnc1)c1ccccc1)B(O)O (stereo not given in full)
[1]
  IC50: 382 nM

## CC(C)C[C@H](NC(=O)CC(NC(=O)c1ccccc1)c1ccc(Cl)cc1)B(O)O (stereo not given in full)
[1]
  IC50: 30 nM

## COc1ccc([C@@H](CC(=O)N[C@@H](CC(C)C)B(O)O)NC(=O)c2ccccc2)cc1
[5]
  Tmax: 1.8 min
[6]
  MRT: 2.8 h
HL-60
  IC50: 140 nM
[7]
  Cmax: 2930 ng/mL
[2]
  IC50: 74.4 µM
PC-3
  IC50: 230 nM
BXPC-3
  IC50: 380 nM
SW480
  IC50: 410 nM
[8]
  clearance: 18.8 mL/min/kg
[9]
  half-life: 318 min
Rattus norvegicus [10]
  Activity: Non-toxic
[11]
  AUC(0-t): 933 ng·h/mL
U-266
  IC50: 350 nM
[1]
  IC50: 9.6 nM
A549
  IC50: 830 nM
NCI-H460
  IC50: 14.6 µM
[12]
  Vd: 8.45 L/kg
HepG2
  IC50: 1.88 µM
Rattus norvegicus [13]
  Activity: Non-toxic
SK-OV-3
  IC50: 3.49 µM
Rattus norvegicus [14]
  Activity: Non-toxic

## COc1ccc(C(CC(=O)N[C@@H](CC(C)C)B(O)O)NC(=O)c2cccnc2)cc1 (stereo not given in full)
[1]
  IC50: 35 nM

## CC(C)C[C@H](NC(=O)[C@H](Cc1ccccc1)NC(=O)c1cnccn1)B(O)O [BORTEZOMIB]
[15]
  AUC(0-t): 303 ng·h/mL
[5]
  Tmax: 1.8 min
[16]
  Cmax: 161 ng/mL
[17]
  Activity: 28.5%
[6]
  MRT: 1.4 h
[18]
  Tmax: 13.8 min
HL-60
  IC50: 7.1 nM
[7]
  Cmax: 1080 ng/mL
[2]
  IC50: 3.29 µM
PC-3
  IC50: 7 nM
BXPC-3
  IC50: 16.2 nM
[19]
  Activity: Toxic
SW480
  IC50: 6.1 nM
[8]
  clearance: 23.9 mL/min/kg
[20]
  CL/F: 44.7 mL/min/kg
Rattus norvegicus [21]
  Activity: Toxic
[9]
  half-life: 120 min
[11]
  AUC(0-t): 654 ng·h/mL
[22]
  bioavailability: 46%
U-266
  IC50: 8.8 nM
Rattus norvegicus [23]
  Vz: 29791 mL/kg
[1]
  IC50: 2.48 nM
A549
  IC50: 6.7 nM
[24]
  Activity: 52.4%
NCI-H460
  IC50: 0.78 µM
[12]
  Vd: 3.74 L/kg
HepG2
  IC50: 0.0075 µM
SK-OV-3
  IC50: 0.151 µM
[25]
  half-life: 448 min
Rattus norvegicus [26]
  Activity: Toxic
[27]
  MRT: 7.69 h

Reference: ChEMBL document CHEMBL1157599, “Synthesis, in vitro and in vivo biological evaluation, docking studies, and structure--activity relationship (SAR) discussion of dipeptidyl boronic acid proteasome inhibitors composed of beta-amino acids” (J Med Chem, 2010)
